The source of these data is PubChem BioAssay (NCI).

“And” between values parts separate entries of the source, which are not always exact repeats. Equal values may be shown once.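 Five concentrations, 48 hours, 96-well plates. GI50 = concentration required for 50% inhibition of growth. TGI marks complete inhibition of growth.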 Where a SMILES comes first, the peptide text is derived from it. [ ]: non-standard residue; d: D form. The star is where a group is joined. NMeF = CN[C@@H](Cc1ccccc1)C(=O)O; NMeV = CN[C@H](C(=O)O)C(C)C; Boc = CC(C)(C)OC(=O)*; OBn = c1ccc(CO*)cc1 A value given as a limit tells only on which side of the number the result lay.

Common to all, as to test: NCI tumour cell line growth inhibition, 48 h
The test system of experiment [1] is MDA-N.
Experiment [2] has as its system DLD-1 colon.
Experiment [3] concerns HOP-18 NSCLC.
Experiment [4] deals with DMS 273 small cell lung.
Experiment [5] concerns XF 498 CNS.
The subject of experiment [6] is LXFL 529 NSCLC.
The subject of experiment [7] is KM20L2 colon.
The subject of experiment [8] is DMS 114 small cell lung.
Experiment [9] concerns RXF-631 renal.
The subject of experiment [10] is SN12K1 renal.
Experiment [11] has as its system P388 leukemia.

As for `N#CCCSC(=S)C1CCCC1=N` (stereo not given), the TGI in [1] is above 100 µM.
`Cc1ccc(C(=O)C#Cc2c[nH]c(=O)[nH]c2=O)cc1`: the figures for the TGI in experiment [2], in experiment [3] and in [4] were 22.1 µM, 32.6 µM and 38.6 µM, respectively.
As for `CNC(=O)NC(CCCCNC(=O)OCc1ccccc1)C(=O)OCc1ccccc1` (stereo not given), the TGI is above 100 µM in experiment [2]; 31.8 µM in experiment [5]; above 100 µM in [6]; above 100 µM in experiment [7]; 44 µM in experiment [1]; above 100 µM in experiment [4]. The compound further showed a TGI in [8] of 85.4 µM.
As for `CCCCCCCCCCCCCCCCCC(=O)OCC(COC1OC(CS(=O)(=O)O)C(O)C(O)C1O)OC(=O)CCCCCCCCCCCCCCCCC` (stereo not given), the TGI in [1] is above 100 µM.
With `CSc1nc(C)c(Br)c(=O)n1C1OC(COC(C)=O)C(OC(C)=O)C(OC(C)=O)C1OC(C)=O` (stereo not given), the TGI was above 100 µM in experiment [2]; 43.6 µM in [5]; > 100 µM and 76.4 µM in experiment [6]; above 100 µM in experiment [7]; above 100 µM in [3]; above 100 µM in experiment [1]. In addition, the TGI is above 100 µM in [4]; > 100 µM and 81 µM in [8]. The GI50 was > 100 µM and 32.1 µM in [6]; > 100 µM and 25.5 µM in [8].
On to `NCCCNCCSSC/C=C\CSSCCNCCCN`, for which the TGI in experiment [2] is above 100 µM; in experiment [5], above 100 µM; in [6] it was > 100 µM and 88.4 µM; in [7] it was above 100 µM; in experiment [3], above 100 µM; in experiment [4] it was above 100 µM. Further, the TGI in [8] is above 100 µM. The GI50 in experiment [7] was > 100 µM and 38.9 µM.
Regarding `COC1OC(COS(=O)(=O)c2ccc(C)cc2)C(O)C(OS(=O)(=O)c2ccc(C)cc2)C1OS(=O)(=O)c1ccc(C)cc1` (stereo not given), the TGI in experiment [2], in experiment [6], in experiment [7], in experiment [3], in [4] and in [8] was above 100 µM throughout. Further, the TGI in experiment [9] was above 100 µM.
On to `NC(=O)Nc1c([N+](=O)[O-])cc(C(F)(F)F)cc1[N+](=O)[O-]`, for which the TGI in experiment [5] is above 100 µM; in experiment [6], above 100 µM; in experiment [7], 80.6 µM; in experiment [4], above 100 µM; in [9] it was above 100 µM.
As for `CC1=NC(C(C)C)C(=O)O1` (stereo not given), the TGI in experiment [2], in experiment [5], in [6], in experiment [7], in [3] and in experiment [4] was above 100 µM in each case. Moreover, the TGI in experiment [8] is 56.2 µM; in experiment [9] it was above 100 µM.
As for `CC(C)[C@@H](C(=O)N1CCC[C@H]1C(=O)OCc1ccccc1)N(C)C(=O)[C@H](C(C)C)N(C)C(=O)[C@H](Cc1ccccc1)N(C)C(=O)[C@H](NC(=O)OC(C)(C)C)C(C)C` (Boc-[dV][NMeF][NMeV][NMeV]P-OBn), the TGI in experiment [2], in [5], in [6], in [7], in [3] and in experiment [4] was above 100 µM throughout. In experiment [8], this compound yielded a TGI above 100 µM.
In experiment [1], `Cc1cc(=O)oc2c(OS(C)(=O)=O)c(OS(C)(=O)=O)ccc12` had a TGI above 100 µM.
Take `O=C1OC(c2ccccc2)=N/C1=C\c1cc(Cl)ccc1Cl`: the TGI is above 100 µM in [2]; 86 µM in [6]; above 100 µM in experiment [7]; above 100 µM in experiment [3]; above 100 µM in experiment [8]; above 100 µM in experiment [9].
Regarding `CC(C(=O)O)/C(=C\c1ccc2c(c1)OCO2)C(=O)O` (stereo not given), the TGI in experiment [2], in experiment [5], in experiment [6], in experiment [7], in experiment [3] and in experiment [1] was above 100 µM in each case. Besides, the TGI in [4], in experiment [8] and in experiment [9] was above 100 µM in each case.
`CC(C)NC(=O)OCc1c(COC(=O)NC(C)C)c(-c2ccc(Cl)c(Cl)c2)n2c1CCC2`: the TGI is above 72.3 µM in experiment [2]; above 62.1 µM in [5]; 16.3 µM in experiment [6]; above 100 µM in experiment [10]; 58.7 µM in experiment [7]; above 83.9 µM in [3]. Further, the figures for the TGI in [4], in experiment [8] and in experiment [11] were above 67 µM, 57.4 µM and above 100 µM, respectively.
With `CCCc1nc(NC#N)nc(C(=O)NC23CC4CC(CC(C4)C2)C3)c1C`, the TGI in [2], in [6], in experiment [7], in experiment [3], in [4] and in experiment [8] was above 100 µM in each case.
`CCOC(=O)N[C@@H]1C2CC(=O)C(O2)[C@@H]1OC` (stereo not given in full): the TGI in [2], in experiment [7] and in [3] was above 100 µM throughout.
On to `COc1ccc(C(=O)C(C(=O)C(=O)NC2C3CC4CC(C3)CC2C4)c2ccc(OC)cc2)cc1` (stereo not given), for which the TGI in experiment [2], in [6], in [7], in experiment [3], in experiment [4] and in [8] was above 100 µM throughout.
For the compound `COC(=O)C1=C(c2ccc3c(c2)OCO3)OC(c2ccc3c(c2)OCO3)C1` (stereo not given), the TGI in experiment [2], in experiment [5], in experiment [6], in experiment [7], in experiment [3] and in experiment [4] was above 100 µM throughout. Further, the TGI in [8] and in experiment [9] was above 100 µM in each case.
On to `Brc1ccccc1C=NC12CC3CC(CC(C3)C1)C2`, for which the TGI was above 100 µM in [2]; above 100 µM in experiment [5]; above 100 µM in experiment [6]; above 100 µM in experiment [7]; above 100 µM in experiment [3]; above 73.8 µM in experiment [1]. The TGI in experiment [4], in experiment [8] and in experiment [9] was above 100 µM each time.
In turn, `OCC1OC2OC3C(CO)OC(OC4C(CO)OC(OC5C(CO)OC(OC6C(CO)OC(OC7C(CO)OC(OC1C(O)C2O)C(O)C7O)C(O)C6O)C(O)C5O)C(O)C4O)C(O)C3O` (stereo not given) (tested in a mixture with another compound) showed a TGI in experiment [1] of 39.9 µM.
